Reference: US20120142730A1 (priority 2010, published 2012)

System: subjects with relapsing remitting multiple sclerosis (RRMS)
Test: ALLEGRO phase III trial: MRI endpoints (lesions, brain volume, MTR, 1H-MRS)
Type: in vivo, human
Parameters: key to BA from M12 to M24: percent change of brain volume (SIENA); Change in average MTR of T2 visible lesions / T2 volume / Hypointense T1 volume / GdE volume: unit not given here
Settings: for BA at month 12, reduction / BA (brain atrophy, percent brain volume change) at month 12: baseline to 12 months
Procedure: Eligible subjects were equally randomized 1:1 into one of the following treatment arms: • 1. […] 21, 2007 (see, page 10, line 5 to page 11, line 3). • 2. Matching placebo for laquinimod arm: one capsule is administered once daily. MRI related secondary endpoints were the cumulative number of GdE lesions at months 12 and 24; and the cumulative number of new T2 lesions (relative to previous scan) at months 12 and 24; MRI exploratory endpoints included percent change of brain volume using SIENA.^10 Additional MRI methodological details are as follows: In all patients, MRI scans were performed at 0, 12, and 24 months. Before a site could enrol study participants they were required to image a volunteer patient with definite MS twice with repositioning according to a strict study imaging protocol using scanners with a minimum field strength of 1.5T. Fast/turbo spin echo (repetition time [TR]=2200-3500 ms, echo time [TE]=14-50/90-120 ms, echo train length=2-7, slice thickness=3 mm, and contiguous axial slices= • 44) sequences were used to obtain proton density and T2-weighted images. High resolution pre-contrast 3D T1-weighted sequences (TR=8-15 ms, TE=3-5 ms, inversion time=1.1 s, number of slices 160, slice thickness 1.2 mm, flip angle [FA]=10-15, orientation sagittal) were acquired for quantification of brain atrophy. Finally, T1-weighted images (1.5 T scanners: conventional spin echo sequence; TR=600-650 ms, TE=10-20 ms, slice thickness=3 mm, and contiguous axial slices=44; 3.0 T scanners: 3D sequence; TR=5-9 ms, TE=2-5 ms, FA=15, slice thickness=3 mm, and contiguous axial slices=44) were obtained 5 minutes after injection of 0.1 mmol/kg of gadolinium. A series of axial, coronal, and sagittal images was obtained to create an axial reference scan for subsequent careful repositioning of each patient at the follow-up session. Axial slices were positioned to run parallel to a line joining the most inferioanterior and inferioposterior parts of the corpus callosum. Image quality was reviewed at the MRI-AC using predetermined criteria. The identification of GdE and T2-hyperintense lesions was done by consensus of two experienced observers. The number of total and new GdE lesions and new/enlarging T2-hyperintense lesions were counted. The identified lesions were then outlined by trained technicians using a semiautomated segmentation technique based on local thresholding (Jim 4.0; […] System, Leicester, UK) and lesion volumes were calculated automatically. Percentage brain volume changes and cross-sectional normalized brain volumes were measured on […] T1-weighted images, with Structural Image Evaluation of Normalized Atrophy (SIENA) software and a cross-sectional method ([…]) (available from the FMRIB Software Library, Oxford University, Oxford, UK; http://www.fmrib.ox.ac.uk/analysis/research/[…]). Analyses of the secondary MRI endpoints of the cumulative number of GdE and new/enlarging T2 lesions at 12 and 24 months involved a baseline-adjusted negative binomial regression with an “offset” employing the log of the relative exposure to adjust for early-terminated patients. The model included as covariates the number of enhancing lesions at baseline, and country or geographical region. In the case of new/enlarging T2 lesion analysis, the baseline T2 lesion volume was also added. […] The analysis of the brain atrophy endpoint involved a baseline-adjusted analysis of covariance (ANCOVA). The covariates were the number of GdE lesions at baseline and the country or region. The exploratory endpoints were all analyzed at a significance level of 5%. Secondary endpoints of the ALLEGRO trial included disease activity as measured by MRI, including counts of Gadolinium enhancing T1 lesions and new-T2 hyperintense lesions. […] Conventional MRI scans for new T1 hypointense lesions, and brain volume using SIENA were performed at baseline, 12 and 24 months. […]

[1] = 0.6 mg daily oral vs placebo, listed as laquinimod
[2] = 0.6 mg daily oral, listed as laquinimod
[3] = post-hoc, not naïve, vs placebo

CCN(C(=O)c1c(O)c2c(Cl)cccc2n(C)c1=O)c1ccccc1 [Laquinimod, laquinimod]
Cumulative new Hypointense T1 lesions months 12 + 24, mean (0.6 mg daily oral): 1.468
Cumulative number of GdE lesions at months 12 and 24, mean (0.6 mg daily oral): 1.332
Cumulative number of GdE lesions at months 12 and 24, median (0.6 mg daily oral): 0.00
Cumulative number of new/enlarging T2 lesions at 12 and 24 months, mean (0.6 mg daily oral): 5.032
Cumulative new Hypointense T1 lesions months 12 + 24, reduction (0.6 mg daily oral vs placebo): 27% reduction
Cumulative number of new/enlarging T2 lesions at 12 and 24 months, reduction (0.6 mg daily oral vs placebo): 30% reduction
Percent change of brain volume baseline to month 24, reduction in brain atrophy (0.6 mg daily oral vs placebo): 32.8% reduction
Percent change of brain volume from baseline to month 24, adjusted mean difference (0.6 mg daily oral vs placebo): 0.426
BA at month 12, reduction (0.6 mg daily oral vs placebo): 53% reduction
BA at month 12, reduction [1]: 51.7%
Cumulative new Hypointense T1 lesions months 12 + 24, reduction [1]: 26.7%
Cumulative number of new/enlarging T2 lesions at 12 and 24 months, reduction [1]: 30%
Percent change of brain volume baseline to month 24, reduction in brain atrophy [1]: 32.8%
Percent change of brain volume from baseline to month 24, adjusted mean change (0.6 mg daily oral, SIENA): −0.871%
BA (brain atrophy, percent brain volume change) at month 12 (0.6 mg daily oral): −0.358%
BA (brain atrophy, percent brain volume change) at month 12 [2]: −0.358%
Cumulative new Hypointense T1 lesions months 12 + 24, mean [2]: 1.47
Adjusted mean change in NAA/Cr from baseline to month 24 (1H-MRS subgroup, n=12): 0.087
Change in average MTR of T2 visible lesions (MT MRI subgroup, n=43): −0.005
Change in mean MTR whole brain from baseline to last observed value (LOV) (MT MRI subgroup, n=44): +0.045
Change in mean MTR whole brain baseline to LOV, difference from placebo (MT MRI subgroup, p=0.0180): 0.483
Change in average MTR of T2 visible lesions, difference from placebo (MT MRI subgroup, p=0.1007): 0.330
Hypointense T1 volume, change BL to M24 (baseline to month 24): 7%^
T2 volume, change BL to M24 (baseline to month 24): 11.5%^
Hypointense T1 volume (month 12): 2.805
T2 volume (month 12): 8.005
Hypointense T1 volume, effect (month 12, vs placebo): ~1%
T2 volume, effect (month 12, vs placebo): 5%
Hypointense T1 volume (month 24): 2.829
T2 volume (month 24): 8.111
Hypointense T1 volume, effect (month 24, vs placebo): ~1%
T2 volume, effect (month 24, vs placebo): 5%
BA for pts with all scans, change BL to M12 (post-hoc): −0.337
BA for pts with all scans, change BL to M24 (post-hoc): −0.855
BA from M12 to M24 (post-hoc): −0.548
% BV change M24 (post-hoc, GdE = 0): −0.859%
% BV change M24, reduction (post-hoc, GdE = 0, vs placebo): 30% reduction
% BV change M24 (post-hoc, GdE > 0): −0.881%
% BV change M24, reduction (post-hoc, GdE > 0, vs placebo): 37% reduction
GdE counts (post-hoc, M12): 0.731
GdE lesion free (post-hoc, M12): 69% ^
GdE volume (post-hoc, M12): 1.058
New T2 lesion # (post-hoc, M12): 2.81
New-T1 Hypointense Lesions (post-hoc, M12): 1.074
T1 Hypointense Lesion free (post-hoc, M12): 56.3% ^
T2 lesion free (post-hoc, M12): 30.8% ^
GdE counts, reduction (post-hoc, M12, vs placebo): 36% reduction
GdE lesion free, effect on odds (post-hoc, M12, vs placebo): 49% odds
GdE volume, effect (post-hoc, M12, vs placebo): 4.5%
New T2 lesion #, effect (post-hoc, M12, vs placebo): 33.5%
New-T1 Hypointense Lesions, reduction (post-hoc, M12, vs placebo): 27% reduction
T1 Hypointense Lesion free, effect on odds (post-hoc, M12, vs placebo): 28% odds
T2 lesion free, effect on odds (post-hoc, M12, vs placebo): 39% odds
GdE counts (post-hoc, M24): 0.482
GdE lesion free (post-hoc, M24): 74.5% ^
GdE volume (post-hoc, M24): 1.045
New T2 lesion # (post-hoc, M24): 4.45
New-T1 Hypointense Lesions (post-hoc, M24): 1.230
T1 Hypointense Lesion free (post-hoc, M24): 52.8% ^
T2 lesion free (post-hoc, M24): 20.3% ^
GdE counts, reduction (post-hoc, M24, vs placebo): 39% reduction
GdE lesion free, effect on odds (post-hoc, M24, vs placebo): 72% odds
GdE volume, effect (post-hoc, M24, vs placebo): 4.7%
New T2 lesion #, effect (post-hoc, M24, vs placebo): 31.5%
New-T1 Hypointense Lesions, reduction (post-hoc, M24, vs placebo): 32% reduction
T1 Hypointense Lesion free, effect on odds (post-hoc, M24, vs placebo): 47% odds
T2 lesion free, effect on odds (post-hoc, M24, vs placebo): 40% odds
% BVC BL to M24 (post-hoc, MRI free NO): −1.001%
% BVC BL to M24, effect (post-hoc, MRI free NO, vs placebo): 65.5%
% BVC BL to M24 (post-hoc, MRI free YES): −0.533%
% BVC BL to M24, effect (post-hoc, MRI free YES, vs placebo): 45.5%
% BV change by previous medications (post-hoc, naïve): −0.82%
Cum # T1 GdE by previous medications (post-hoc, naïve): 1.135
Cum New T2 by previous medications (post-hoc, naïve): 4.967
T1 hypointense by previous medications (post-hoc, naïve): 1.585
% BV change by previous medications, reduction (post-hoc, naïve, vs placebo): 38% reduction
Cum # T1 GdE by previous medications, reduction (post-hoc, naïve, vs placebo): 42% reduction
Cum New T2 by previous medications, reduction (post-hoc, naïve, vs placebo): 33% reduction
T1 hypointense by previous medications, reduction (post-hoc, naïve, vs placebo): 28% reduction
Cum # T1 GdE by previous medications (post-hoc, not naive): 1.746
Cum # T1 GdE by previous medications, reduction (post-hoc, not naive, vs placebo): 32% reduction
% BV change by previous medications (post-hoc, not naïve): −0.954%
Cum New T2 by previous medications (post-hoc, not naïve): 5.075
T1 hypointense by previous medications (post-hoc, not naïve): 1.217
% BV change by previous medications, reduction [3]: 23% reduction
Cum New T2 by previous medications, reduction [3]: 24% reduction
T1 hypointense by previous medications, reduction [3]: 25% reduction
BA for pts with all scans, change BL to M12, effect (post-hoc, vs placebo): 60%
BA for pts with all scans, change BL to M24, effect (post-hoc, vs placebo): 57%
